Test results from patent US10342795B2, “Substituted 4,5,6,7-tetrahydro-pyrazolo[1,5-a]pyrimidine derivatives and 2,3-dihydro-1H-imidazo[1,2-b]pyrazole derivatives as ROS1 inhibitors” (Janssen Pharmaceutica NV, priority 2014, dated 2019).

How the values were obtained:
Ros1 enzyme = target: T1, Ros1 enzyme (Homo sapiens, UniProt P08922); assay: Ros1 enzymatic assay; assay type: biochemical; settings: -log IC50 (M); 20 μM ATP, 120 min at room temperature; read-out: ROS1 pIC50 (converted)
T1 construct: 0.5 μg/ml Ros1 enzyme
T1 sequence (P08922 28-2347): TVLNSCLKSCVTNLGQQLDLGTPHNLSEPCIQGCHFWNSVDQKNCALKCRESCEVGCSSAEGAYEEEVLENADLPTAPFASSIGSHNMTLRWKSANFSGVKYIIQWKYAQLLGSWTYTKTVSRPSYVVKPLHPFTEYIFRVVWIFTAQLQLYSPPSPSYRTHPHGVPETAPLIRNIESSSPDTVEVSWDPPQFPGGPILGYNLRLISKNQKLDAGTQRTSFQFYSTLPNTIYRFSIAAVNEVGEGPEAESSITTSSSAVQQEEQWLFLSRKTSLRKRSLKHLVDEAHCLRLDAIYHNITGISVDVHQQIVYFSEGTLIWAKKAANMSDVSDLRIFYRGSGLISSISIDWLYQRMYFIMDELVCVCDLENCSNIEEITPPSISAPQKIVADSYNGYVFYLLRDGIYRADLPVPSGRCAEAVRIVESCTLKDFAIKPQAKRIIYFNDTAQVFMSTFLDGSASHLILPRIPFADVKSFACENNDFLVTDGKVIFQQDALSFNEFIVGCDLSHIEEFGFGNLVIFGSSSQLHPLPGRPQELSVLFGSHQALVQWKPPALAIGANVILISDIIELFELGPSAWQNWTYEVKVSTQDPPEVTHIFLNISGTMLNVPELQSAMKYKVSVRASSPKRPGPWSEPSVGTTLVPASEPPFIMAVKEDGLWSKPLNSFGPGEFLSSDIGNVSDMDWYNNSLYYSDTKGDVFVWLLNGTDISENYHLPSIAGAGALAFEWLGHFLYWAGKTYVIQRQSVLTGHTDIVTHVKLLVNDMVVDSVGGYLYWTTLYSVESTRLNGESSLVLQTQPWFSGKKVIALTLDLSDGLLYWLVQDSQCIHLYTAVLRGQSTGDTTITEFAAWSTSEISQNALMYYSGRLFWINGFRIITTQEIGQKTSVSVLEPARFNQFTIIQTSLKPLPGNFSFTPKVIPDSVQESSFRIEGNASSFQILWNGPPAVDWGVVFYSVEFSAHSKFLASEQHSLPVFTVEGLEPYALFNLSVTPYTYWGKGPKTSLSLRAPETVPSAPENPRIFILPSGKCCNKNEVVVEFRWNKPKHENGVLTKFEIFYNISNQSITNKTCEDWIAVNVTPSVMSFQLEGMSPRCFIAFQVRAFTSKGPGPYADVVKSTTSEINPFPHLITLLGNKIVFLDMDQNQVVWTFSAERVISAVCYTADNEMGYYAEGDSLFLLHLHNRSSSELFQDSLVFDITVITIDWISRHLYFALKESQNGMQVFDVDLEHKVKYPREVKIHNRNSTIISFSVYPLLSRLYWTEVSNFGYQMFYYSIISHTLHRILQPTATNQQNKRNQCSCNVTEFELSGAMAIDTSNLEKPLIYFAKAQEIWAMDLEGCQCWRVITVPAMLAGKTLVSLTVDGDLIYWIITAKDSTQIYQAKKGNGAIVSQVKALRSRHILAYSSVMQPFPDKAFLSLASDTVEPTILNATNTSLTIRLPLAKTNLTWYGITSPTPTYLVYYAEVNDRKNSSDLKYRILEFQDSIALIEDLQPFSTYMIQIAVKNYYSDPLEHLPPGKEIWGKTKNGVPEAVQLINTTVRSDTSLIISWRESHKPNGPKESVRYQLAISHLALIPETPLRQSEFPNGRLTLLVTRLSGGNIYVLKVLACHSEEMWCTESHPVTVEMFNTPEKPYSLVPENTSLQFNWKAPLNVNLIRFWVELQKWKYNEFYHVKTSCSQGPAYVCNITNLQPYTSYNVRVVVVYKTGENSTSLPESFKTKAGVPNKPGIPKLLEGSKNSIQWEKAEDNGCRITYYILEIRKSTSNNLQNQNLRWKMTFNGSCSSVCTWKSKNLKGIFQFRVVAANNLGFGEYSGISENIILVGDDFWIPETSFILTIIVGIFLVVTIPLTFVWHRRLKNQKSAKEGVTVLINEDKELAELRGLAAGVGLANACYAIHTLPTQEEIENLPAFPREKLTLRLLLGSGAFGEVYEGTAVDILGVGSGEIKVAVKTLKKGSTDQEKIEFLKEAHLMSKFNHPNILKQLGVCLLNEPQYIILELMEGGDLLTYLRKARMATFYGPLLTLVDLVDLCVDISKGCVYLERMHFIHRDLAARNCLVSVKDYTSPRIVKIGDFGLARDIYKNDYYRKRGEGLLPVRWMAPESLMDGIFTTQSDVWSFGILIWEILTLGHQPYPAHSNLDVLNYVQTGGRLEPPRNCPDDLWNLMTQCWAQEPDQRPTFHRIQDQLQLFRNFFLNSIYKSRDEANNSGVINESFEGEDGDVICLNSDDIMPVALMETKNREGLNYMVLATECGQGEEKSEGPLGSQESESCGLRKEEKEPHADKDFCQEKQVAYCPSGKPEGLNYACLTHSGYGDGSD
Description: Compounds were spotted onto white 384-well Proxiplate plus plates (Perkin Elmer) to which 5 μl of enzyme mix (0.5 μg/ml Ros1 enzyme, 50 mM Tris-HCl pH7.5, 1 mM EGTA, 10 mM MgCl2, 0.01% Tween-20) and 5 μl of substrate mix (6 μg/ml IRS-Tide [American Peptide Company], 20 μM ATP, 13.33 μCi/ml ATP (adenosine 5′-triphosphate) P^33, 50 mM Tris-HCl pH7.5, 1 mM EGTA (ethylene glycol-bis(2-aminoethylether)-N,N,N′,N′-tetraacetic acid), 10 mM MgCl2, 0.01% Tween-20) were added. After incubation for 120 minutes at room temperature, 10 μl of stop reaction buffer (5 mM EDTA, 50 μM ATP, 0.1% BSA (bovine serum albumin), 0.1% Triton X-100, 50 mM Tris-HCl pH7.5, 1 mM EGTA, 10 mM MgCl2, 0.01% Tween-20) containing 2 mg/ml streptavidin coupled polystyrene imaging beads (Amersham Biosciences) was added and incubated for 15 minutes at room temperature. Plates were centrifuged for 3 minutes at 1500 rpm and signals detected in a LEADseeker imaging system (GE).

[1] = target: Ba/F3 cells containing Ros1 wild-type protein (Homo sapiens, UniProt P08922, cells depend on it, form not given); assay: Ba/F3-Ros1 cell proliferation assay, wild-type Ros1, without IL-3; assay type: cell-based, murine; settings: -log IC50 (M); wild-type Ros1, no IL-3, 24 h, Alamar Blue
Ba/F3 cells containing Ros1 wild-type protein, sequence (P08922 whole entry, stated change not applied): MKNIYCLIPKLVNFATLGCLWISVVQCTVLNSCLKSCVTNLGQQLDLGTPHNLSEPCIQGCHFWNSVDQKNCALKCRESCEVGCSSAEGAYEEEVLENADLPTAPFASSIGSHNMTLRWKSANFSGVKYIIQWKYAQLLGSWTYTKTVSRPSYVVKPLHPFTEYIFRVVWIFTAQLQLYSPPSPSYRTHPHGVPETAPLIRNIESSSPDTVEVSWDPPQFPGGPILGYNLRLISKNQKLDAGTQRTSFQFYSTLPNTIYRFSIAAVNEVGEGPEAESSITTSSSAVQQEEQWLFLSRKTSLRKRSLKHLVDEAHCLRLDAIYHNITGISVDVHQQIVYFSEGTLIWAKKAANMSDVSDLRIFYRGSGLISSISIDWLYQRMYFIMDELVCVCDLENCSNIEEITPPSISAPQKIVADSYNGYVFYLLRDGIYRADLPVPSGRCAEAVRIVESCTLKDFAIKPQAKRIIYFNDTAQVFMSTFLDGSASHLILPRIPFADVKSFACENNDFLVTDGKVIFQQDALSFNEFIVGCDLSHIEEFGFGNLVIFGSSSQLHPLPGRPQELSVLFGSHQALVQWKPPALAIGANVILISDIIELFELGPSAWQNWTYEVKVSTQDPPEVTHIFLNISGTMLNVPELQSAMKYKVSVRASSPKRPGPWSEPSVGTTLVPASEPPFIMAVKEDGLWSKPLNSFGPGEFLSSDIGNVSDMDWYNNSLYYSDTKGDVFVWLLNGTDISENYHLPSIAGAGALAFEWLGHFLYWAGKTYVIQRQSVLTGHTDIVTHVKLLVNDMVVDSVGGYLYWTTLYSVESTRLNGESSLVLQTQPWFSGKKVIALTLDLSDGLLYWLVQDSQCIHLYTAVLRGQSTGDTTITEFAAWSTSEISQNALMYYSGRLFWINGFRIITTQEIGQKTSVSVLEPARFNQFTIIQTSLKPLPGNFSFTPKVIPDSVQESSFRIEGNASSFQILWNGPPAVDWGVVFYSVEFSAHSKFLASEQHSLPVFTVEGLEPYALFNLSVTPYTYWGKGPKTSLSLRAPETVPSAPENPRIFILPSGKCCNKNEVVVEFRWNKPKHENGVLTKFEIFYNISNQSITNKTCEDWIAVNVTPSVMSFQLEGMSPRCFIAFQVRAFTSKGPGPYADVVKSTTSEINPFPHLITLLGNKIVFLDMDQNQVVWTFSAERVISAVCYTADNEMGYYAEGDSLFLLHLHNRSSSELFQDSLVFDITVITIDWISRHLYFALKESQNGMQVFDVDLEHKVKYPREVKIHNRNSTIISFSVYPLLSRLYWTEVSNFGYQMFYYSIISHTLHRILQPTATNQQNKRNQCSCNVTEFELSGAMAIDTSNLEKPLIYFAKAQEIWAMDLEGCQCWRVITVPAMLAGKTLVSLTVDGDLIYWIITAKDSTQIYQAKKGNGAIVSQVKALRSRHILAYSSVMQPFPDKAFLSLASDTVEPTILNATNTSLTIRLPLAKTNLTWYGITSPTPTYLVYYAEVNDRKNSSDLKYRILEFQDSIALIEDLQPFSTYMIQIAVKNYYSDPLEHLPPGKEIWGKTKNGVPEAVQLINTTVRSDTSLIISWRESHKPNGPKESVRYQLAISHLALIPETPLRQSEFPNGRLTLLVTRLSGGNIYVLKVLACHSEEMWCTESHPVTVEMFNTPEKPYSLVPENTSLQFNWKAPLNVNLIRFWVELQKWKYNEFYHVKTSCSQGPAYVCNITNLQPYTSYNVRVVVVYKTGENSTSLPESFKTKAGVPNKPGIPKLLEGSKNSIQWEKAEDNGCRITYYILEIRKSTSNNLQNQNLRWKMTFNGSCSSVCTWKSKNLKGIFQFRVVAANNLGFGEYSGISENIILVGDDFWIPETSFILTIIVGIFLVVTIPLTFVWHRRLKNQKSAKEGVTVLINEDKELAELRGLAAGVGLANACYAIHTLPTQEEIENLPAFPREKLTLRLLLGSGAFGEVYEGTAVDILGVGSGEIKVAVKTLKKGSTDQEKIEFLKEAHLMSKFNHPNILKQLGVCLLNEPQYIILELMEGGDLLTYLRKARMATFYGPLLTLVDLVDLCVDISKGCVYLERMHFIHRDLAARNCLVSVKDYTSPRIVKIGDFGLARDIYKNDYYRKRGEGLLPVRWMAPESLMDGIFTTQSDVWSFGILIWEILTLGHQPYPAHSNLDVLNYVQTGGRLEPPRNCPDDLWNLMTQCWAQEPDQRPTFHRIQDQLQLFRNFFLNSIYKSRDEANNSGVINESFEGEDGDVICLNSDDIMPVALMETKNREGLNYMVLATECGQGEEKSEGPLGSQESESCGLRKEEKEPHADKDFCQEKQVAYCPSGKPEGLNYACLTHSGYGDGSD
Description: (§1) This assay was carried out with Ba/F3 cells containing three different versions of Ros1: the wild-type protein, protein with a mutation at the gatekeeper residue (L2026M), and protein with a mutation identified in a tumor from a patient that became resistant to crizotinib (Xalkori®) treatment (G2032R). Compounds were solubilized in 100% DMSO (dimethyl sulfoxide) and sprayed into polystyrene, tissue culture treated 384-well plates. A 50 μl volume of cell culture medium (phenol red free RPMI-1640, 10% FBS (fetal bovine serum), 2 mM L-Glutamine) containing 20000 Ba/F3-Ros1 cells was added to each well and the plates were placed in an incubator at 37° C. and 5% CO2. After 24 hours, 10 μl of Alamar Blue solution (0.5 mM K3Fe(CN)6, 0.5 mM K4Fe(CN)6, 0.15 mM Resazurin and 100 mM Phosphate Buffer) was added to the wells, incubated for 4 hours at 37° C. and 5% CO2 before RFU's (Relative Fluorescence Units) (ex. 540 nm., em. 590 nm.) were measured in a fluorescence plate reader.

[2] = system: Ba/F3 cells containing Ros1 wild-type protein + IL-3; assay: Ba/F3-Ros1 cell proliferation counter-screen, wild-type Ros1 in the presence of murine IL-3; assay type: cell-based; settings: Mus musculus, BaF3, 24 h; -log IC50 (M); wild-type Ros1, 10 ng/ml murine IL-3 (counter-screen); read-out: BaF3-ROS1 + IL3 pIC50 (converted)
Description: as §1
As a counter-screen the same experiment was performed for the wild-type protein in the presence of 10 ng/ml murine IL-3.

[3] = target: Ba/F3 cells containing Ros1 L2026M (Homo sapiens, UniProt P08922, L2026M, cells depend on it, form not given); assay: Ba/F3-Ros1 cell proliferation assay, L2026M gatekeeper mutant; assay type: cell-based, murine; settings: -log IC50 (M), no IL-3
Ba/F3 cells containing Ros1 L2026M, sequence (P08922 whole entry L2026M, form open): as the sequence (P08922 whole entry, stated change not applied) above, with L2026M counted along it
Description: as §1

[4] = target: Ba/F3 cells containing Ros1 G2032R (Homo sapiens, UniProt P08922, G2032R, cells depend on it, form not given); assay: Ba/F3-Ros1 cell proliferation assay, G2032R mutant; assay type: cell-based, murine; settings: -log IC50 (M), no IL-3
Ba/F3 cells containing Ros1 G2032R, sequence (P08922 whole entry G2032R, form open): as the sequence (P08922 whole entry, stated change not applied) above, with G2032R counted along it
Description: as §1

[5] = system: HCC78 non-small cell lung cancer cells; assay: HCC78 cell proliferation assay; assay type: cell-based; settings: Homo sapiens, HCC78, 96 h; -log EC50 (M); 4 days, MTT; read-out: HCC-78 PROL pEC50 (converted)
Description: Approximately 1000 HCC78 non-small cell lung cancer cells in 180 μl of cell culture medium (RPMI-1640, 10% FBS, 2 mM L-Glutamine, 10 mM Hepes, 1 mM sodium pyruvate, 4.5 g/L glucose, 1.5 g/L sodium bicarbonate, 25 μg/ml Gentamycin) were seeded in each well of a 96-well polystyrene, tissue-culture treated plate and incubated at 37° C. and 5% CO2. After 24 hours, compounds were diluted in cell culture medium from which 20 μl was added to the wells containing cells and incubated for 4 days at 37° C. and 5% CO2. A 5 mg/ml solution of the tetrazolium dye MTT was prepared in PBS (phosphate-buffered saline) and 25 μl was added to each well. After 2 hours the medium was removed and replaced by 125 μL of 4/1 DMSO/glycine buffer (0.1M glycine, 0.1M NaCl, pH 10.5) before absorbance was determined at 538 nm.

Ba/F3-Ros1 G2032R tumors = assay: Efficacy study in mice bearing Ba/F3-Ros1 G2032R tumors; assay type: in vivo, NMRI nude mice; settings: oral gavage, 10 days, 20% cyclodextrin, change in final relative tumor volumes
Description: Approximately 2×10^6 Ba/F3 cells containing G2032R mutant Ros1 were inoculated into the inguinal region of NMRI nude mice. When the resulting tumors reached a size of 250 to 350 mm^3, mice were randomly assigned to the different treatment groups (8 to 12 mice per group). Compounds formulated in 20% cyclodextrin were administered to the mice by oral gavage at various doses for 10-days once (QD) or twice (BID) a day (see table below for administration frequency used in the study). Tumor sizes were determined by caliper measurement on day 1 prior to treatment and then twice weekly for the duration of the study using the commonly following formula: tumor volume (mm^3)=(a×b^2/2); where ‘a’ represents the length, and ‘b’ the width of the tumor. Treatment/control (T/C) ratios were calculated at the end of the study based on the change in final relative tumor volumes.

Ros pY2274 = Ros pY2274 (Homo sapiens, UniProt P08922); assay: pROS1 immunofluorescence assay in HCC78 cells; assay type: cell-based; settings: -log IC50 (M); 4 hours, Ros1 pY2274 normalized to total Ros1
Description: Approximately 20000 HCC78 non-small cell lung cancer cells in 180 μl of cell culture medium (RPMI-1640, 10% FBS, 2 mM L-Glutamine, 10 mM Hepes, 1 mM sodium pyruvate, 4.5 g/L glucose, 1.5 g/L sodium bicarbonate, 25 μg/ml Gentamycin) were seeded in each well of a 96-well polystyrene, poly-D-lysine coated plate and incubated at 37° C. and 5% CO2. After 24 hours, compounds were diluted in cell culture medium from which 20 μl was added to the wells containing cells and incubated for 4 hours at 37° C. and 5% CO2. The medium was removed and the cells were fixed by adding 100 μl of 5% formaldehyde in TBS (tris-buffered saline) (50 mM Tris.HCl, pH 7.4, 150 mM NaCl) and incubating for 15 minutes at room temperature. The formaldehyde was removed and replaced with methanol for 10 minutes at room temperature, after which the cells were washed 3 times with TBS containing 1% Triton X-100 and incubated in Odyssee (Li-Cor) blocking buffer for 1 hour at room temperature. The cells were then incubated with the primary rabbit antibody directed against Ros pY2274 (cst-3078) diluted 1/200 in blocking buffer for 24 hours at room temperature. The cells were washed three times with TBS containing 0.1% Triton X-100 and incubated with a secondary anti-rabbit antibody conjugated to the fluorescent dye Alexafluor 680 in blocking buffer for 1 hour at room temperature. The cells were washed three times with TBS containing 0.1% Triton X-100 and left to dry before measuring RFUs (Relative Fluorescence Units) at 700 nm using a fluorescence imager. The same experiment was performed using total Ros1 antibody (sc-6347) diluted 1/1000 instead of Ros1 pY2274 antibody and an anti-goat antibody conjugated to IRDye800cw as a secondary antibody. RFUs were measured at […]. The signals from total Ros1 detection were used to normalize the Ros1pY2274 values.

Row | Compound | IC50 (Ros1 enzyme) [M] | BaF3-ROS1 − IL3 pIC50 [1] | CC50 [2] [M] | Ba/F3 Ros1 L2026M (-IL-3) pIC50 [3] | Ba/3 Ros1 G2032R (-IL-3) pIC50 [4] | EC50 [5] [M] | T/C (%) (Ba/F3-Ros1 G2032R tumors; 12.5 mg/kg BID) | T/C (%) (Ba/F3-Ros1 G2032R tumors; 25 mg/kg BID) | T/C (%) (Ba/F3-Ros1 G2032R tumors; 50 mg/kg BID) | melting point [°C] | HCC78 pRos pIC50 (Ros pY2274)
1 | CC(C)c1ccc(COc2ccc(-c3c(-c4ccncc4)nn4c3NCC4)cc2)cc1 [Co. 1] | 1.26e-07 | 7.0 | 5.01e-06 | ~6.7 | 6.4 | 7.94e-07 | 64 | 16 | −18 | 156 | –
2 | c1cc(-c2nn3c(c2-c2ccc(OCc4ccc(C5CC5)cc4)cc2)NCC3)ccn1 [Co. 7] | 2.51e-07 | 6.8 | > 1e-05 | 7.5 | 6.2 | 6.31e-07 | – | – | – | 159 | –
3 | CC(C)c1ccc(COc2ccc(-c3c(-c4ccncc4)nn4c3N(CCO)CC4)cc2)cc1 [Co. 10] | 1.26e-07 | 7.1 | > 1e-05 | 6.8 | 6.4 | 2.51e-06 | – | – | – | 151 | –
4 | CC(C)c1ccc(COc2ccc(-c3c(-c4ccncc4)nn4c3NC(=O)C4)cc2)cc1 [Co. 13] | 1.58e-07 | 6.8 | > 1e-05 | 6.7 | – | 5.01e-07 | – | – | – | – | 6.8
5 | CC(C)c1ccc(COc2ccc(-c3c(-c4ccncc4)nn4c3NC(=O)CC4)cc2)cc1 [Co. 16] | 1.26e-07 | 7.0 | > 1e-05 | 7.3 | – | 1e-07 | – | – | – | 290 | ~5.4
6 | CC(C)c1ccc(COc2ccc(-c3c(-c4ccncc4)nn4c3NCCC4)cc2)cc1 [Co. 17] | 3.98e-08 | 7.1 | > 1e-05 | 6.9 | – | 1e-07 | – | – | – | 205 | 7.6
